Where a name gives a salt, the structure may show the parent alone. Read-outs that look alike come from different tables or passages of the source.
Columns and labels:
[1] = Test for hygroscopicity (Chinese Pharmacopeia 2010, Appendix XIX J); assay type: physicochemical
Description: The experiment was carried out according to Guiding Principles of Drug Hygroscopicity Test, Appendix XIX J, Second Part, Chinese Pharmacopeia (2010), the weight increased by hygroscopy of samples (compound shown in Formula (I) and salts thereof prepared in EXAMPLES 1-17) was calculated respectively, the results were shown in Table 4.

[2] = Test for stability: related substances under high temperature and illumination (HPLC); assay type: physicochemical; details: for Related substances Day 10 under high temperature / Related substances Day 10 under illumination condition / Related substances Day 0: acetonitrile-water (1:1) solution; for Related substances Day 10 under high temperature: 60° C., in % (unit assumed); for Related substances Day 10 under high temperature / Related substances Day 10 under illumination condition: 10 days, area normalization; for Related substances Day 10 under illumination condition: 4500 lx±500 lx; for Related substances Day 0: day 0, area normalization
Description: The experiment was carried out according to Guiding Principles of Active Pharmaceutical Ingredient and Pharmaceutical Formulation Stability Test, Appendix XIX C, Second Part, Chinese Pharmacopeia (2010), the increase of related substance of the solution of compounds shown in formula (I) and salts thereof (EXAMPLES 1-17) under high temperature condition (60° C.) and illumination (the light intensity was 4500 lx±500 lx) was detected to evaluate the stability.
Wherein, the method for detecting related substance was shown as following:
HPLC: Waters 2695 UV Detector
Chromatographic Column: Diamonsil C18 (2) 5 μm, 150×4.6 mm
Detection wavelength: 322 nm
Column temperature: 30° C.
Mobile phase B: buffer (900 ml water+10 ml triethylamine+5 ml phosphoric acid, being diluted to 1000 ml with water)
The testing samples were prepared by using acetonitrile-water (1:1) solution with a concentration of 10-100 μg/ml, kept under high temperature (60° C.) and illumination (the light intensity was 4500 lx±500 lx) respectively for 10 days, the mass of related substance was determined on day 0 and day 10 (calculated by using area normalization), the results were shown in Table 6.

[3] = Pharmacokinetic test, absolute bioavailability in rats; assay type: in vivo; details: male SD rats, i.g. 40 mg/kg vs i.v. 20 mg/kg
Description: 48 male SD rats with a body weight of 200-220 g were randomly divided into 8 groups with 6 mice each group, administered the compound shown in Formula (I), the hydrochloride salt, mesylate and acetate thereof intragastrically (i.g.) and intravenously (i.v.) respectively, and the protocol was shown in Table 7:
Intragastric administration: 2% of HPMC
Intravenous administration: a solution prepared with 20% PEG
The rats were fasted for 12 hours with free access to water prior to experiment; and fed together 2 hours after administration.
Blood sampling time points: 5 min (only administering intravenously), 0.25 h, 0.5 h, 1.0 h, 2.0 h, 4.0 h, 6.0 h, 8.0 h and 24 h after administration;
Sample treatment: 0.3 ml venous blood was obtained from rats' posterior ocular vein plexus at the above-mentioned time points, put into a heparinized tube, centrifuged for 5 minutes at 11000 rpm to separate plasma, then frozen in a refrigerator at −20° C.
The concentration of parent drugs in rat's plasma was detected by utilizing LC/MS/MS.
Wherein, F: absolute bioavailability; AUC: area under the curve; D: Dosage

PIM1 = PIM1 (Homo sapiens, UniProt P11309); assay: Assay of PIM kinase activity, PIM1; assay type: biochemical; details: 6 concentrations, initial concentration 30 nM; read-out: IC50 PIM 1
Chain of PIM1 (P11309 whole entry): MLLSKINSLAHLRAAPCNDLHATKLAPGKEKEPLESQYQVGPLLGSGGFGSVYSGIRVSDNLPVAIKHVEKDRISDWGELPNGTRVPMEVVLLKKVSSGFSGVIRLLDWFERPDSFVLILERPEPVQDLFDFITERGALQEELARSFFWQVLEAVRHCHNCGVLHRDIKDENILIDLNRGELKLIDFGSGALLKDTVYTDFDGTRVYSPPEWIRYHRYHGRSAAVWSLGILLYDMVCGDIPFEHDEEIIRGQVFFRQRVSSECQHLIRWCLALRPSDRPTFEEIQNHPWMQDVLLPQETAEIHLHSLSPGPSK
Description: (§1) Dose-dependent experiments on PIM1, PIM2 and PIM3 were commissioned to Shanghai Runnuo Biotechnology, 6 concentration gradients were set, the initial concentration was 30 nM, 200 nM and 30 nM, then diluted successively, the inhibitive effects of compounds on PIM kinase was tested, the results were shown in Table 9.

PIM2 = PIM2 (Homo sapiens, UniProt Q9P1W9); assay: Assay of PIM kinase activity, PIM2; assay type: biochemical; details: 6 concentrations, initial concentration 200 nM; read-out: IC50 PIM 2
Chain of PIM2 (Q9P1W9 whole entry): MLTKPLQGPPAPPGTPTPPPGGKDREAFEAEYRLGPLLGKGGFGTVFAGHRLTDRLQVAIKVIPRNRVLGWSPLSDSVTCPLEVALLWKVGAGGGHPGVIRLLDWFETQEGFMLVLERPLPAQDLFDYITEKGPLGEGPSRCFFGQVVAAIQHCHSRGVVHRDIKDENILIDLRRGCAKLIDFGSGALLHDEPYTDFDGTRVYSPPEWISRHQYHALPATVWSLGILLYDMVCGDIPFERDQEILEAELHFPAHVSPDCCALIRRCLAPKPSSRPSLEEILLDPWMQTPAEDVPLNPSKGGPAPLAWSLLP
Description: as §1

PIM3 = PIM3 (Homo sapiens, UniProt Q86V86); assay: Assay of PIM kinase activity, PIM3; assay type: biochemical; details: 6 concentrations, initial concentration 30 nM; read-out: IC50 PIM 3
Description: as §1

[4] = Test of solubility in water (HPLC)
Description: Wherein, the chromatographic condition was shown as follows:
Chromatographic Column: C18
Column temperature: 25° C.
Mobile phase A: 0.1% TFA-water
Mobile phase B: 0.1% TFA-CAN

**Q.** Which melting point does the source give for `Nc1sc(-c2c(F)cccc2F)nc1C(=O)Nc1cncnc1OCC1CCNCC1` (as salt: hydrochloride) [EXAMPLE 2] here?
**A.** 236.1 to 239.4 °C

**Q.** What does the source list for `Nc1sc(-c2c(F)cccc2F)nc1C(=O)Nc1cncnc1OCC1CCNCC1` [EXAMPLE 1, 5-amino-2-(2,6-difluorophenyl)-N-(4-(piperidine-4-methoxy)pyrimidine-5-) thiazole-4-formamide]?
**A.** Weight increased by hygroscopy [1]: 3.35%; Related substances Day 10 under high temperature [2]: 5.02; Related substances Day 10 under illumination condition [2]: 3.02%; Related substances Day 0 [2]: 0.45%; Absolute Bioavailability [3]: 2.2%; IC50 (PIM1): 10 nM; IC50 (PIM2): 8.09 nM; IC50 (PIM3): 23 nM

**Q.** For `Nc1sc(-c2c(F)cccc2F)nc1C(=O)Nc1cncnc1OCC1CCNCC1` [EXAMPLE 2], which “Weight increased by hygroscopy” value [1] is on record?
**A.** 0.52%

**Q.** And the “Weight increased by hygroscopy” value ([1]; listed as hydrochloride salt)?
**A.** 0.52%

**Q.** What about the “Related substances Day 10 under high temperature” value [2] of the same compound?
**A.** 0.68

**Q.** And the Related substances Day 10 under illumination condition [2]?
**A.** 0.56%

**Q.** And the Related substances Day 0 [2]?
**A.** 0.49%

**Q.** And the “increase of the amount of related substance” value ([2]; after 10 days, heat, light)?
**A.** ≤ 0.19%

**Q.** And the “Absolute Bioavailability” value [3]?
**A.** 32.2%

**Q.** What about the IC50 (PIM1) of the same compound?
**A.** 2.31 nM

**Q.** What about the IC50 (PIM2) of the same compound?
**A.** 1.54 nM

**Q.** And the IC50 (PIM3)?
**A.** 4.36 nM

**Q.** What about the solubility in water [4] of the same compound?
**A.** about 1 mg/mL

**Q.** With `Br.Nc1sc(-c2c(F)cccc2F)nc1C(=O)Nc1cncnc1OCC1CCNCC1` [EXAMPLE 3] as the compound, how does the “Weight increased by hygroscopy” value [1] read?
**A.** 4.32%

**Q.** What about the “Related substances Day 10 under high temperature” value [2] of the same compound?
**A.** 3.45

**Q.** What about the Related substances Day 10 under illumination condition [2] of the same compound?
**A.** 1.67%

**Q.** And the Related substances Day 0 [2]?
**A.** 0.52%

**Q.** For `Nc1sc(-c2c(F)cccc2F)nc1C(=O)Nc1cncnc1OCC1CCNCC1.O=C(O)/C=C\C(=O)O` [EXAMPLE 4], which “Weight increased by hygroscopy” value [1] is on record?
**A.** 5.45%

**Q.** And the “Related substances Day 10 under high temperature” value [2]?
**A.** 4.54

**Q.** And the Related substances Day 10 under illumination condition [2]?
**A.** 2.22%

**Q.** And the Related substances Day 0 [2]?
**A.** 0.46%

**Q.** For `Nc1sc(-c2c(F)cccc2F)nc1C(=O)Nc1cncnc1OCC1CCNCC1.O=C(O)CCC(=O)O` [EXAMPLE 6, Succinate], which “Weight increased by hygroscopy” value [1] is on record?
**A.** 7.56%

**Q.** What about the “Related substances Day 10 under high temperature” value [2] of the same compound?
**A.** 8.82

**Q.** And the Related substances Day 10 under illumination condition [2]?
**A.** 4.56%

**Q.** And the Related substances Day 0 [2]?
**A.** 0.55%

**Q.** With `Nc1sc(-c2c(F)cccc2F)nc1C(=O)Nc1cncnc1OCC1CCNCC1.O=S(=O)(O)O` [EXAMPLE 7] as the compound, how does the “Weight increased by hygroscopy” value [1] read?
**A.** 3.56%

**Q.** And the “Related substances Day 10 under high temperature” value [2]?
**A.** 4.67

**Q.** And the Related substances Day 10 under illumination condition [2]?
**A.** 2.45%

**Q.** What about the Related substances Day 0 [2] of the same compound?
**A.** 0.52%

**Q.** Which results are given for `Nc1sc(-c2c(F)cccc2F)nc1C(=O)Nc1cncnc1OCC1CCNCC1.O=C(O)CC(O)(CC(=O)O)C(=O)O` [EXAMPLE 8]?
**A.** Weight increased by hygroscopy [1]: 5.67%; Related substances Day 10 under high temperature [2]: 7.34; Related substances Day 10 under illumination condition [2]: 5.52%; Related substances Day 0 [2]: 0.52%

**Q.** With `Nc1sc(-c2c(F)cccc2F)nc1C(=O)Nc1cncnc1OCC1CCNCC1.O=C(O)c1ccccc1` [EXAMPLE 9] as the compound, how does the “Weight increased by hygroscopy” value [1] read?
**A.** 7.53%

**Q.** And the “Related substances Day 10 under high temperature” value [2]?
**A.** 5.56

**Q.** And the Related substances Day 10 under illumination condition [2]?
**A.** 4.44%

**Q.** What about the Related substances Day 0 [2] of the same compound?
**A.** 0.56%

**Q.** Which “Weight increased by hygroscopy” value [1] does the source give for `CS(=O)(=O)O.Nc1sc(-c2c(F)cccc2F)nc1C(=O)Nc1cncnc1OCC1CCNCC1` [EXAMPLE 10] here?
**A.** 8.21%

**Q.** And the “Related substances Day 10 under high temperature” value [2]?
**A.** 35.6

**Q.** And the Related substances Day 10 under illumination condition [2]?
**A.** 23%

**Q.** What about the Related substances Day 0 [2] of the same compound?
**A.** 0.54%

**Q.** What about the “Absolute Bioavailability” value [3] of the same compound?
**A.** 7.32%

**Q.** For `CC(O)C(=O)O.Nc1sc(-c2c(F)cccc2F)nc1C(=O)Nc1cncnc1OCC1CCNCC1` [EXAMPLE 11], which “Weight increased by hygroscopy” value [1] is on record?
**A.** 3.67%

**Q.** What about the “Related substances Day 10 under high temperature” value [2] of the same compound?
**A.** 10.78

**Q.** What about the Related substances Day 10 under illumination condition [2] of the same compound?
**A.** 5.67%

**Q.** And the Related substances Day 0 [2]?
**A.** 0.54%

**Q.** Which results are given for `CC(=O)O.Nc1sc(-c2c(F)cccc2F)nc1C(=O)Nc1cncnc1OCC1CCNCC1` [EXAMPLE 12]?
**A.** Weight increased by hygroscopy [1]: 9.21%; Related substances Day 10 under high temperature [2]: 3.56; Related substances Day 10 under illumination condition [2]: 2.65%; Related substances Day 0 [2]: 0.62%; Absolute Bioavailability [3]: 5.34%

**Q.** For `Cc1ccc(S(=O)(=O)O)cc1.Nc1sc(-c2c(F)cccc2F)nc1C(=O)Nc1cncnc1OCC1CCNCC1` [EXAMPLE 13], which “Weight increased by hygroscopy” value [1] is on record?
**A.** 5.78%

**Q.** What about the “Related substances Day 10 under high temperature” value [2] of the same compound?
**A.** 8.94

**Q.** What about the Related substances Day 10 under illumination condition [2] of the same compound?
**A.** 5.67%

**Q.** And the Related substances Day 0 [2]?
**A.** 0.65%

**Q.** With `Nc1sc(-c2c(F)cccc2F)nc1C(=O)Nc1cncnc1OCC1CCNCC1.O=C(O)/C=C/C(=O)O` [EXAMPLE 15] as the compound, how does the “Weight increased by hygroscopy” value [1] read?
**A.** 4.77%

**Q.** What about the “Related substances Day 10 under high temperature” value [2] of the same compound?
**A.** 9.12

**Q.** What about the Related substances Day 10 under illumination condition [2] of the same compound?
**A.** 6.54%

**Q.** And the Related substances Day 0 [2]?
**A.** 0.56%

**Q.** What does the source list for Ascorbate [EXAMPLE 17]?
**A.** Weight increased by hygroscopy [1]: 5.67%; Related substances Day 10 under high temperature [2]: 18.98; Related substances Day 10 under illumination condition [2]: 6.66%; Related substances Day 0 [2]: 0.56%

**Q.** With Palmitate [EXAMPLE 14] as the compound, how does the “Weight increased by hygroscopy” value [1] read?
**A.** 6.43%

**Q.** What about the “Related substances Day 10 under high temperature” value [2] of the same compound?
**A.** 6.89

**Q.** What about the Related substances Day 10 under illumination condition [2] of the same compound?
**A.** 3.67%

**Q.** What about the Related substances Day 0 [2] of the same compound?
**A.** 0.66%

**Q.** For Tartrate [EXAMPLE 16], which “Weight increased by hygroscopy” value [1] is on record?
**A.** 7.88%

**Q.** What about the “Related substances Day 10 under high temperature” value [2] of the same compound?
**A.** 6.89

**Q.** What about the Related substances Day 10 under illumination condition [2] of the same compound?
**A.** 3.33%

**Q.** What about the Related substances Day 0 [2] of the same compound?
**A.** 0.63%

Source: patent US11066401B2, “Pyrimidine compound, chloride salt thereof, and manufacturing and application of same” (SHENZHEN HAIBIN PHARMACEUTICAL CO., LTD, priority 2016, dated 2021)
